Consider six compounds from patent US4386076A, “(E)-5-(2-Halogenovinyl)-arabinofuranosyluracil, process for preparation thereof, and uses thereof” (Yamasa Shoyu Kabushiki Kaisha, priority 1979, dated 1983).

Converted amounts (≈) assume the structure as drawn. Read-outs that look alike come from different tables or passages of the source.

A short description of series [1]: Anti-HEL-F, cell proliferation (Pharmacological Test 3). Format: cell-based, human. The note with it: human, hel-f cells. The procedure: (§1) The effects of 5-bromovinyl araU and 5-chlorovinyl-araU on proliferation of HEL-F were compared with those of IDU and araA in accordance with the Machida et al. method (cf. Antimicrobial Agents and Chemotherapy, Vol. 16, No. 2, p. 158, 1979).
(§2) In the growth medium of HEL-F under proliferation (culture medium: Eagle's minimal essential medium supplemented with 10% fetal bovine serum) was added a test compound diluted in serial two-fold dilution and then incubated for 4 days. The numbers of increased cells with various concentrations of the compound tested were compared with those of the control groups wherein no compound was added.
(§3) In conformance with Pharmacological Tests 1 and 2, the anti-virus activities and cell proliferations of 5-bromovinyl-araU and 5-chlorovinyl-araU were compared with those of 5-vinyl-araU and 5-bromovinyl-2'-deoxyuridine (5-bromovinyl-dUrd).

For a further series, the system named is HSV-2. In words: Anti-HSV-2 activity (Pharmacological Test 3). Format: cell-based, type-2 herpes (HSV-2). The note with it: for anti-HSV-2 activity compared with 5-vinyl-araU: relative to 5-vinyl-araU. Here is the method: (§4) In accordance with the Sidwell et al. method (cf. Applied Microbiology, Vol. 22, No. 5, P. 797, 1971), the anti-virus activities of 5-bromovinyl- and 5-chlorovinyl-araU on human embryonic lung fibroblasts (HEL-F) were determined by using as controls 5-iodo-2'-deoxyuridine (IDU) and arabinofuranosyladenine (araA).
as §3

The test system of series [2] is VZV. The experiment in a line: Anti-VZV activity (Pharmacological Test 3). The note with it: for MIC: Human alphaherpesvirus 3. Format: cell-based, varicella-zoster virus. The procedure:
as §4, §3

In another series the test system is HSV-1. The experiment in a line: Anti-HSV-1 activity (Pharmacological Test 3). The note with it: for anti-HSV-1 activity compared with 5-vinyl-araU: Test 3, relative to 5-vinyl-araU. Format: cell-based, herpes simplex virus type 1. Here is the method:
as §4, §3

Series [3] deals with VZV. The experiment in a line: Anti-virus activity on HEL-F, VZV (Pharmacological Test 1, Sidwell et al. method). Format: cell-based, varicella-zoster virus. The note with it: for MIC: Human alphaherpesvirus 3, read-out: MIC (minimal inhibitory concentration for cytopathogenic effect caused by the infection). The procedure: as §4
(§5) *MIC = minimal inhibitory concentration for cytopathogenic effect caused
^(3) VZV = varicellazoster virus

In a further series the test system is HSV-1, VR-3. In words: Anti-virus activity on HEL-F, HSV-1 VR-3 (Pharmacological Test 1, Sidwell et al. method). In kind it is cell-based, herpes simplex virus type 1 VR3 strain. Here is the method:
as §4, §5
^(1) HSV1, VR3 = herpes simplex virus type 1 VR3 strain

The nature of series [4]: Effect on proliferation of HEL-F (Pharmacological Test 2, Machida et al. method). The note with it: human, hel-f cells. Format: cell-based, human. Here is the method: as §1, §2
The subject of the next series is HSV, isolate-1. The experiment in a line: Anti-virus activity on HEL-F, HSV isolate-1 (Pharmacological Test 1, Sidwell et al. method). The note with it: for MIC: read-out: MIC (minimal inhibitory concentration for cytopathogenic effect caused by the infection). Format: cell-based, herpes simplex virus clinical isolated strain 1. The procedure: as §4, §5
^(2) HSV, isolate1 = herpes simplex virus clinical isolated strain 1
On the technique in general: Protection from cytopathic effect is a common read-out in antiviral testing.

Series [5] deals with HEL-F. In words: Anti-HEL-F, cell proliferation (Pharmacological Test 3). The note with it: for HEL-F proliferation inhibitory effect compared with 5-bromovinyl-dUrd: Test 3, relative to 5-bromovinyl-dUrd; for cell proliferation inhibiting activity relative to 5-vinyl-araU: Test 3, relative to 5-vinyl-araU. In kind it is cell-based, human. Here is the method:
as §1, §2, §3

Another series relates to herpes virus. In words: Anti-virus activity, overall statement. In kind it is cell-based. The note with it: for anti-virus activity compared with IDU and araA: Test 1, relative to IDU and araA; for anti-virus activity compared with 5-bromovinyl-dUrd: Test 3, relative to 5-bromovinyl-dUrd. Here is the method:
as §4, §3

Series [6] concerns HEL-F. The experiment in a line: Effect on proliferation of HEL-F (Pharmacological Test 2, Machida et al. method). Format: cell-based, human. The note with it: Test 2, relative to IDU and araA. The procedure:
as §1, §2

Setting [7] is: Human alphaherpesvirus 2, Test 3, read-out: Anti-HSV-2 MIC.
Setting [8] is: Human alphaherpesvirus 1, Test 3, read-out: Anti-HSV-1 MIC.
Where [9] appears, read: Human alphaherpesvirus 1, HSV-1 VR-3, HEL-F, Test 1, read-out: MIC (minimal inhibitory concentration for cytopathogenic effect caused by the infection).
Where [10] appears, read: HEL-F under proliferation, incubated for 4 days, Test 2, read-out: ID50 (50% inhibition of proliferation).

In [1], `C=Cc1cn([C@@H]2O[C@H](CO)[C@@H](O)[C@@H]2O)c(=O)[nH]c1=O` [5-vinyl-araU, 5-vinylarabinofuranosyluracil, reference compound] showed a CC50 at 96 h of 650 µg/mL (≈ 2410 µM). Moreover, the MIC was 1 µg/mL (≈ 3.7 µM) in the series with HSV-2 (setting [7]), 0.32 µg/mL (≈ 1.18 µM) against VZV [2] and 0.1 µg/mL (≈ 0.37 µM) in the series on HSV-1 (setting [8]). For the same compound, in the series on HSV-2 (Test 3), the “Anti-HSV-2 VR” value is on record as 2.7. Moreover, the “Anti-VZV VR” value in the series on VZV [2] turned out to be 2.9. The “Anti-HSV-1 VR” value in the series on HSV-1 (Test 3) amounted to 3.3.

`O=c1[nH]c(=O)n([C@H]2C[C@H](O)[C@@H](CO)O2)cc1I` [IDU, 5-iodo-2'-deoxyuridine, reference compound]: the “VR (virus rating)” value came out at 2.3 in the series with VZV [3]; 2.4 with HSV-1, VR-3 (HSV-1 VR-3, HEL-F, Test 1); 2.1 in the series with HSV, isolate-1 (HSV isolate-1, HEL-F, Test 1). Also, the MIC in the series with VZV [3] came to 3.2 µg/mL (≈ 9.04 µM); in the series on HSV-1, VR-3 (setting [9]) it was 3.2 µg/mL (≈ 9.04 µM); with HSV, isolate-1 (HSV isolate-1, HEL-F, Test 1), 3.2 µg/mL (≈ 9.04 µM). The CC50 at 96 h in series [4] (setting [10]) was 6 µg/mL (≈ 16.9 µM).

`Nc1ncnc2c1ncn2[C@@H]1O[C@H](CO)[C@@H](O)[C@@H]1O` [araA, arabinofuranosyladenine, reference compound]: the “VR (virus rating)” value is on record as 1.9 in the series with HSV-1, VR-3 (HSV-1 VR-3, HEL-F, Test 1) and 1.9 in the series on HSV, isolate-1 (HSV isolate-1, HEL-F, Test 1). Also, the MIC in the series on HSV-1, VR-3 (Human alphaherpesvirus 1, read-out: MIC (minimal inhibitory concentration for cytopathogenic effect caused by the infection)) is 10 µg/mL (≈ 37.4 µM); in the series with HSV, isolate-1, 10 µg/mL (≈ 37.4 µM). The compound further registered a CC50 at 96 h in series [4] of 4 µg/mL (≈ 15 µM).

Regarding `O=c1[nH]c(=O)n([C@@H]2O[C@H](CO)[C@@H](O)[C@@H]2O)cc1/C=C/Br` [5-bromovinyl-araU, (E)-5-(2-bromovinyl)-1-β-D-arabinofuranosyluracil], the CC50 at 96 h in [1] and in series [4] (setting [10]) was > 1000 µg/mL in each case. Further, the “HEL-F proliferation inhibitory effect compared with 5-bromovinyl-dUrd” value in the series with HEL-F [5] is on record as “less than that of 5-bromovinyl-dUrd”. The “cell proliferation inhibiting activity relative to 5-vinyl-araU” value with HEL-F [5] is given as “one half relative to 5-vinyl-araU”. In addition, the “VR (virus rating)” value with VZV [3] is reported as 3.5; in the series on HSV-1, VR-3 (HSV-1 VR-3, HEL-F, Test 1), 3.8; in the series on HSV, isolate-1 (HSV isolate-1, HEL-F, Test 1), 3.8. The MIC in the series on VZV [3] turned out to be 0.1 µg/mL (≈ 0.286 µM); in the series with HSV-2 (setting [7]), 100 µg/mL (≈ 286 µM); in the series with VZV [2], 0.1 µg/mL (≈ 0.286 µM); in the series on HSV-1 (setting [8]), 0.032 µg/mL (≈ 0.0917 µM); with HSV-1, VR-3 (setting [9]), 0.032 µg/mL (≈ 0.0917 µM); in the series with HSV, isolate-1 (HSV isolate-1, HEL-F, Test 1) it was 0.032 µg/mL (≈ 0.0917 µM). For the same compound, in the series with herpes virus, the “anti-virus activity compared with IDU and araA” value is “stronger anti-virus activities”. Besides, the “anti-virus activity compared with 5-bromovinyl-dUrd” value in the series with herpes virus is on record as “potencies similar to that of 5-bromovinyl-dUrd”. Moreover, in the series with HSV-2 (HSV-2 versus HSV-1), the “anti-HSV-2 activity compared with anti-HSV-1 activity” value was “lower than that on type-1 herpes (HSV-1)”. The “Anti-HSV-2 VR” value with HSV-2 (Test 3) turned out to be 0.9. In addition, the “anti-HSV-2 activity compared with 5-vinyl-araU” value with HSV-2 is reported as “inferior to 5-vinyl-araU”. Moreover, the “Anti-VZV VR” value in the series on VZV [2] stood at 3.5. The “Anti-HSV-1 VR” value in the series on HSV-1 (Test 3) is listed as 3.7. In addition, in the series on HSV-1, the “anti-HSV-1 activity compared with 5-vinyl-araU” value was “significantly greater anti-HSV-1 activity”. Further, the “inhibition of cell proliferation compared with IDU and araA” value in the series on HEL-F [6] was “markedly weak inhibition of cell proliferation”.

For `O=c1[nH]c(=O)n([C@@H]2O[C@H](CO)[C@@H](O)[C@@H]2O)cc1/C=C/Cl` [5-chlorovinyl-araU, (E)-5-(2-chlorovinyl)-1-β-D-arabinofuranosyluracil], the CC50 at 96 h in [1] is 1000 µg/mL (≈ 3280 µM); in [4] (setting [10]) it was > 500 µg/mL. Besides, the “HEL-F proliferation inhibitory effect compared with 5-bromovinyl-dUrd” value in the series with HEL-F [5] is listed as “less than that of 5-bromovinyl-dUrd”. Further, the “cell proliferation inhibiting activity relative to 5-vinyl-araU” value in the series on HEL-F [5] was “one half relative to 5-vinyl-araU”. Besides, the “VR (virus rating)” value in the series with VZV [3] was found to be 3.4; in the series with HSV-1, VR-3 (HSV-1 VR-3, HEL-F, Test 1) it was 3.3; in the series with HSV, isolate-1 (HSV isolate-1, HEL-F, Test 1) it was 3.1. Moreover, the MIC in the series on VZV [3] is 0.1 µg/mL (≈ 0.328 µM); with HSV-2 (setting [7]) it was > 1000 µg/mL; in the series with VZV [2] it was 0.1 µg/mL (≈ 0.328 µM); in the series on HSV-1 (setting [8]) it was 0.1 µg/mL (≈ 0.328 µM); in the series on HSV-1, VR-3 (setting [9]), 0.1 µg/mL (≈ 0.328 µM); in the series with HSV, isolate-1 (HSV isolate-1, HEL-F, Test 1) it was 0.1 µg/mL (≈ 0.328 µM). Moreover, the “anti-virus activity compared with IDU and araA” value with herpes virus is “stronger anti-virus activities”. Besides, the “anti-virus activity compared with 5-bromovinyl-dUrd” value in the series with herpes virus is given as “potencies similar to that of 5-bromovinyl-dUrd”. For the same compound, the “Anti-HSV-2 VR” value in the series with HSV-2 (Test 3) was 0.2. In the series with VZV [2], the “Anti-VZV VR” value was 3.4. The “Anti-HSV-1 VR” value in the series with HSV-1 (Test 3) stood at 3.5. The “anti-HSV-1 activity compared with 5-vinyl-araU” value with HSV-1 is recorded as “significantly greater anti-HSV-1 activity”. In the series with HEL-F [6], the “inhibition of cell proliferation compared with IDU and araA” value was “markedly weak inhibition of cell proliferation”.

Turning to `O=c1[nH]c(=O)n([C@H]2C[C@H](O)[C@@H](CO)O2)cc1/C=C/Br` [5-bromovinyl-dUrd, 5-bromovinyl-2'-deoxyuridine, reference compound], the MIC in the series with HSV-2 (Human alphaherpesvirus 2, read-out: Anti-HSV-2 MIC) was 100 µg/mL (≈ 300 µM); in the series with HSV-1 (Human alphaherpesvirus 1, read-out: Anti-HSV-1 MIC), 0.032 µg/mL (≈ 0.0961 µM). In the series on HSV-2 (Test 3), the “Anti-HSV-2 VR” value stood at 0.7. Besides, in the series with HSV-2, the “anti-HSV-2 activity compared with 5-vinyl-araU” value is recorded as “inferior to 5-vinyl-araU”. The “Anti-HSV-1 VR” value in the series with HSV-1 (Test 3) is given as 3.7.
